Data reported in ChEMBL document CHEMBL1201862, “PubChem BioAssay data set” (2004).
“And” between values parts separate entries of the source, which are not always exact repeats. Identical values can stand only once. The source made the active and inactive calls.

Tests used:
Cytochrome P450 2D6 = Cytochrome P450 2D6 (Homo sapiens, UniProt P10635);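 also: CYP2D6 member of a cytochrome P450 panel assay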
[1] = Luminescence Cell-Based Dose Response HTS to Identify Activators of Luciferase Translation or Activity in H4 […] Cells. [Related pubchem assays: 1829 (Project Summary), 1814 (Primary HTS)]; format: functional
[2] = Luminescence Cell-Based Dose Confirmation HTS to Identify Activators of 5'UTR Stem-Loop Driven Alpha-Synuclein mRNA Translation in H4 Neuroglioblastoma Cells. [Related pubchem assays: 1829 (Project Summary), 1814 (Primary HTS)]; format: functional
H4 = experiment: Luminescence Cell-Based Dose Response HTS to Identify Activators of 5'UTR Stem-Loop Driven Prion Protein mRNA Translation in H4 Neuroglioblastoma Cells. [Related pubchem assays: 1829 (Project Summary), 1814 (Primary HTS)]; format: functional; details: Homo sapiens
[3] = molecular target: T1, Corticotropin-releasing factor receptor 2/Corticotropin-releasing factor-binding protein (Homo sapiens, UniProt P24387+Q13324); experiment: Dose Response confirmation of uHTS hits for small molecule antagonists of the CRF-binding protein and CRF-R2 receptor complex.; format: functional; details: read-out: IC50_Mean
T1 sequence (Q13324 whole entry): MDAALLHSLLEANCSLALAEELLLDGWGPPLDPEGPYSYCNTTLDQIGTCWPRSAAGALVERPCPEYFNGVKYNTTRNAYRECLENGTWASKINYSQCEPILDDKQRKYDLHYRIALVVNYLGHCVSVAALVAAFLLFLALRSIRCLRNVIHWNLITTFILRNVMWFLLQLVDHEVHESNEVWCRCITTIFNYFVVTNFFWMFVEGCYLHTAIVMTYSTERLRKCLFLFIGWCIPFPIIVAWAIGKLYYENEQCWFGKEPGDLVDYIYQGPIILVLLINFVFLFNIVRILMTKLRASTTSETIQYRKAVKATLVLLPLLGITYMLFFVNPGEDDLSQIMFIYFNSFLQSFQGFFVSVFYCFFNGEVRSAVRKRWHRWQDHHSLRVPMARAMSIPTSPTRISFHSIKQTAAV
T1 sequence (P24387 whole entry): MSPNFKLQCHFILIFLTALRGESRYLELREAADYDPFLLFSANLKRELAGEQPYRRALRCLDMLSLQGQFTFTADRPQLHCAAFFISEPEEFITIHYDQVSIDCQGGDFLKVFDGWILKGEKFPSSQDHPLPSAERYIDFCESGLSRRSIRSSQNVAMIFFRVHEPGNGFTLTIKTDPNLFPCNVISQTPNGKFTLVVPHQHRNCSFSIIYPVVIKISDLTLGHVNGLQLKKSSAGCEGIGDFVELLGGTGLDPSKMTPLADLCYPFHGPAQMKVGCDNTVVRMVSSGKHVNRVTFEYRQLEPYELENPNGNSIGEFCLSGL

[4] = molecular target: T1, Corticotropin-releasing factor receptor 2/Corticotropin-releasing factor-binding protein; experiment: activators of CRF receptor 2 with binding protein – uHTS hits, confirmation (AID 602473); format: functional; details: read-out: EC50_Mean
[5] = molecular target: T2, Heat shock factor protein 1 (Mus musculus, UniProt P38532); experiment: HSF1 potentiators in luciferase reporter cells, confirmation, cell-based, NIH3T3, luminescence, dose retest (AID 435004); format: functional;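 also: stress induced by proteasome inhibitor MG132 added 30 min after compound; luciferase reporter driven by HSF1 response element in NIH3T3 cells; actives raise luminescence as potentiators of the MG132 stress response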
T2 sequence (P38532 whole entry): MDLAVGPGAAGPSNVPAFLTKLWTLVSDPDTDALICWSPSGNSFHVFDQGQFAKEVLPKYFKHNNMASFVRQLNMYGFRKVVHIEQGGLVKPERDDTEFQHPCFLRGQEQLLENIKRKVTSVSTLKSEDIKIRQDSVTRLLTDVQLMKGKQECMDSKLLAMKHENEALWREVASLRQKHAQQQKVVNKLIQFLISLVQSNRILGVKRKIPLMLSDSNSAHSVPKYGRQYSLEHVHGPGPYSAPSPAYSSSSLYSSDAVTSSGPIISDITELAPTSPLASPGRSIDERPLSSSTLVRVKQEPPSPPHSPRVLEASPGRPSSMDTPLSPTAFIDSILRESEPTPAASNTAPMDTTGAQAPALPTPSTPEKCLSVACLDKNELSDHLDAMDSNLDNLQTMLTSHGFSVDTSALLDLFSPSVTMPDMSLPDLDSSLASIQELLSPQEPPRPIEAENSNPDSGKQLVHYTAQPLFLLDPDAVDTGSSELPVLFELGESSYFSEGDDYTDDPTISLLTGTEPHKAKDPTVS

Cytochrome P450 2C19 = Cytochrome P450 2C19 (Homo sapiens, UniProt P33261); experiment: Cytochrome panel assay with activity outcomes. Panel member name: p450-cyp2c19 Compounds with AC50 equal or less than 10 uM are considered active; format: functional; details: read-out: AC50
[6] = HepG2 cell cytotoxicity, dose response, cytotoxicity control for Shn3 inhibitor project, CellTiter-Glo, cherry-picked (AID 624134); format: functional, cell-based
[7] = Shn3 3'UTR reporter inhibitors, dose response, cell-based, Clone20 osteoblasts, firefly luciferase, cherry-picked (AID 624132); format: functional;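 also: firefly luciferase luminescence from reporter carrying the Shn3 3'UTR in osteoblasts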
Cytochrome P450 1A2 = molecular target: T3, Cytochrome P450 1A2 (Homo sapiens, UniProt P05177);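 also: PubChem cytochrome P450 panel assay, CYP1A2 panel member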
T3 sequence (P05177 whole entry): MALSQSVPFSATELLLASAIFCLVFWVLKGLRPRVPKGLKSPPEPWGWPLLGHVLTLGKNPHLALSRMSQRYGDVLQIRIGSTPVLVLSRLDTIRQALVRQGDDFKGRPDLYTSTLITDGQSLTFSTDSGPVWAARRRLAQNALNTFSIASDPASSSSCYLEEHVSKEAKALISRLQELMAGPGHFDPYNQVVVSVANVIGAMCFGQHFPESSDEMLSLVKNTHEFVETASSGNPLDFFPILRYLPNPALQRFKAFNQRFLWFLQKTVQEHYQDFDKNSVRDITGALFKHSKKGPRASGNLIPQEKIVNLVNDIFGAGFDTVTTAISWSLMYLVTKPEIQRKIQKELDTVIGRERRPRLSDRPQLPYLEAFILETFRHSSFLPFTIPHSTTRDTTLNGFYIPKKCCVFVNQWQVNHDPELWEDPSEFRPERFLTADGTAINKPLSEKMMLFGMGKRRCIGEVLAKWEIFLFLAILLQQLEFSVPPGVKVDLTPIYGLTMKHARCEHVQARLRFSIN

[8] = control 3'UTR Renilla luciferase suppression, dose response, counter-screen for Shn3 inhibitor project, cell-based, Clone20-Shn3RL, cherry-picked (AID 624133); format: functional
Cytochrome P450 2C9 = Cytochrome P450 2C9 (Homo sapiens, UniProt P11712)
Cytochrome P450 3A4 = Cytochrome P450 3A4 (Homo sapiens, UniProt P08684);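 also: CYP3A4 tested as one member of a cytochrome P450 panel screen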
Sequence of Cytochrome P450 3A4 (P08684 whole entry): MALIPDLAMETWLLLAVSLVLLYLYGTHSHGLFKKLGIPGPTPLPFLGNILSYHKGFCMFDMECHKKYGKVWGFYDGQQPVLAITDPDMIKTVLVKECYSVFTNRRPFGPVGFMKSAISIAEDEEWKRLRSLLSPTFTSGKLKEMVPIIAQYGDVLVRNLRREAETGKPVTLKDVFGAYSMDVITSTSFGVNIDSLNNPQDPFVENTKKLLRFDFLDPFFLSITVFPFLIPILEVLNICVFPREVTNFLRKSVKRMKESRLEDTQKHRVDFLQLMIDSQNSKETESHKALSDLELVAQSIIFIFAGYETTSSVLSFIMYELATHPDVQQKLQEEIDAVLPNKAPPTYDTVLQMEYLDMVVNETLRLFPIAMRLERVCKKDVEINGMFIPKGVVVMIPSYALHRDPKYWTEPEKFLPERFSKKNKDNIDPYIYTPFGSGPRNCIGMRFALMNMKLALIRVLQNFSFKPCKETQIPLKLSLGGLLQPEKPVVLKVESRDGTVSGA

Sequence of Cytochrome P450 2D6 (P10635 whole entry): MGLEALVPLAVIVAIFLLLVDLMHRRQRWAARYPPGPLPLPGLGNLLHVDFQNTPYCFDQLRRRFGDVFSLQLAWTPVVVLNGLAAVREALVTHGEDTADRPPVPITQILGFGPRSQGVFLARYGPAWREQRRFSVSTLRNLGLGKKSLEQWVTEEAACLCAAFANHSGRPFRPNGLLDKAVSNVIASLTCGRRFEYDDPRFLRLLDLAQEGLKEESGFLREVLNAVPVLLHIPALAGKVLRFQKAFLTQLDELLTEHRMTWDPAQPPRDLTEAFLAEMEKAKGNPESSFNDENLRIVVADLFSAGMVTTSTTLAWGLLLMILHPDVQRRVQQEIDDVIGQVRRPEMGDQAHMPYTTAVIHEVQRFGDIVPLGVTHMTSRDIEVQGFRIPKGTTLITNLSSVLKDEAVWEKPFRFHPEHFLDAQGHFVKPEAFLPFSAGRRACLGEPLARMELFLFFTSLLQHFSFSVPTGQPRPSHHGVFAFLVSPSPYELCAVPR
Sequence of Cytochrome P450 2C9 (P11712 whole entry): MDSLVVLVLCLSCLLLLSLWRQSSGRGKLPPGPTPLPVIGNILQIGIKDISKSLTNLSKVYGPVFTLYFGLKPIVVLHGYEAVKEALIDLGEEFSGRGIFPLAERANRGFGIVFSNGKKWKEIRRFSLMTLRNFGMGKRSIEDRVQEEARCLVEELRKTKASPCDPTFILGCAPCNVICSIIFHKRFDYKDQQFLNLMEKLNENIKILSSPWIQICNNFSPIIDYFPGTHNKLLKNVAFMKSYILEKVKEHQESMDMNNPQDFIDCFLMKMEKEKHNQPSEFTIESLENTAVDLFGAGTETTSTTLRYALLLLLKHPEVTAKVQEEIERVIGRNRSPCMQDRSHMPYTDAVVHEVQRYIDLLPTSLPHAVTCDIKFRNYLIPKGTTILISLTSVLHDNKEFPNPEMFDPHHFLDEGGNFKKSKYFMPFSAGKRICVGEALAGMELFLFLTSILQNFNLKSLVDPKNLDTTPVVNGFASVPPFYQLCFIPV
Sequence of Cytochrome P450 2C19 (P33261 whole entry): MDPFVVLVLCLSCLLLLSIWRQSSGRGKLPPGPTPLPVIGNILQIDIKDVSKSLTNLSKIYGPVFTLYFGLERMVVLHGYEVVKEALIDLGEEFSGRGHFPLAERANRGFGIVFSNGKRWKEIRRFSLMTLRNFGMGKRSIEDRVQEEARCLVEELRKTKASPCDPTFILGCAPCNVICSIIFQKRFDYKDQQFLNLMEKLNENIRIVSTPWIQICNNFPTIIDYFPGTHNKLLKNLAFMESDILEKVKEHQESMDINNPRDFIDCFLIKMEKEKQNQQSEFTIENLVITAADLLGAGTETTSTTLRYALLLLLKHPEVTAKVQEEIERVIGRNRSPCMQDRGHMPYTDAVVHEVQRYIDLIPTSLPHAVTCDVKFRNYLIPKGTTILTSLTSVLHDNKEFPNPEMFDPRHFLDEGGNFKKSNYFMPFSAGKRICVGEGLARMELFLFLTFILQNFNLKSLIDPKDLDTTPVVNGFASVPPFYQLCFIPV

## O=C1NCC2(CCN(CCc3ccccc3)CC2)O1 [FENSPIRIDE]
Cytochrome P450 2D6
  AC50: 12.6 µM (inconclusive) and 39.8 µM (inconclusive)

## N#Cc1cn(-c2ccccc2)nc1C(=O)c1ccccc1
[1]
  EC50: > 120 µM (not active)
[2]
  EC50: > 120 µM (not active)
H4
  EC50: > 120 µM (not active)

## COc1cccc(CN2CC(C(=O)NCc3ccc(Cl)s3)CCC2=O)c1 (stereo not drawn)
[3]
  IC50: > 47.1 µM (inactive)
[4]
  EC50: > 53 µM (inactive)

## COc1cc2c(cc1O)C[C@@H]1c3c(cc(O)c(OC)c3-2)CCN1C
Cytochrome P450 2D6
  AC50: 3.16 µM (inconclusive)

## CC(=O)N(C)c1ccc(NC(S)=Nc2cccc3ccccc23)cc1
[1]
  EC50: 29.5 µM (active)
[2]
  EC50: 15.8 µM (active)
H4
  EC50: 30.7 µM (active)

## Cc1ccc(S(=O)(=O)c2c(N)n(-c3ccccc3)c3nc4ccccc4nc23)cc1
[5]
  EC50: 28.6 µM (active)

## COc1ccc(-n2c(=O)cnc3cnc(Oc4cccc(Cl)c4)nc32)cc1
Cytochrome P450 2D6
  AC50: 39.8 µM (inconclusive)
Cytochrome P450 2C19
  AC50: 15.8 µM (inconclusive)

## COc1ccc(C(=O)C(OC(=O)c2ccccc2)c2ccccc2)cc1 (stereo not drawn)
[1]
  EC50: 30.5 µM (active)
[2]
  EC50: 10.7 µM (active)
H4
  EC50: 6.4 µM (active)

## COc1cc(NC(=O)c2cc([N+](=O)[O-])ccc2Br)ccc1NC(=O)c1ccco1
[5]
  EC50: 9.95 µM (active)

## CCN(CC)C(=O)CSc1ncnc2c1nnn2-c1ccc(OC)cc1
[3]
  IC50: > 47.1 µM (inactive)
[4]
  EC50: > 53 µM (inactive)

## Brc1ccccc1OCCCCn1cnc2ccccc21
[1]
  EC50: 16.9 µM (active)
[2]
  EC50: > 120 µM (not active)
H4
  EC50: 13 µM (inconclusive)

## Cc1nn(C)cc1/C=N\NC(=O)c1ccc2c(c1)c(C)c(C)n2Cc1ccccc1
[5]
  EC50: 67.7 µM (active)

## O=S(=O)(c1cccc2nsnc12)N1CCc2ccccc2C1
[3]
  IC50: > 47.1 µM (inactive)
[4]
  EC50: > 53 µM (inactive)

## Cc1ccc(NC(=O)c2oc3ccccc3c2COC(C)C)cc1S(=O)(=O)N1CCOCC1
[6]
  AC50: > 70 µM (inactive)
[7]
  AC50: 14.4 µM (active)

## CCN(CC)Cc1c(C)nc2ccc(NC(C)=O)cc2c1O
[3]
  IC50: > 47.1 µM (inactive)
[4]
  EC50: > 53 µM (inactive)

## COc1ccc(CNc2ncnc3ccc(-c4ccc(C(=O)N(C)C)cc4)cc23)c(OC)c1
Cytochrome P450 1A2
  AC50: 39.8 µM (inconclusive)
Cytochrome P450 2D6
  AC50: 20 µM (inconclusive)

## O=S(=O)(c1ccccc1C(F)(F)F)N1CCN(c2ncnc3sccc23)CC1
[6]
  AC50: 8.89 µM (active)
[7]
  AC50: 3.44 µM (active)
[8]
  AC50: 9.4 µM (active)

## COc1ccc2nc(O)c(CN(CCc3ccccc3)C(C)=O)cc2c1
Cytochrome P450 1A2
  AC50: 14.1 µM (inconclusive)
Cytochrome P450 2C9
  AC50: 14.1 µM (inconclusive)
Cytochrome P450 2D6
  AC50: 14.1 µM (inconclusive)

## Cc1ccc2c(c1)c(C)c(C)n2CC(O)Cn1nc(C)c(Br)c1C (stereo not drawn)
[5]
  EC50: > 260 µM (inactive)

## O=C(CCNS(=O)(=O)c1ccc2c(c1)CCC(=O)N2)NCc1ccc2c(c1)OCO2
Cytochrome P450 2C9
  AC50: 39.8 µM (inconclusive)
Cytochrome P450 2D6
  AC50: 22.4 µM (inconclusive)

## O=C(c1cc2nc(-c3ccc(F)cc3)cc(C(F)(F)F)n2n1)N1CCOCC1
[3]
  IC50: > 47.1 µM (inactive)
[4]
  EC50: > 53 µM (inactive)

## O=C(CC12CCC(CC1)C2)NCc1ccc2c(c1)OCO2
[5]
  EC50: > 260 µM (inactive)

## CN(NC(=O)Nc1ccccc1)c1cnn(C)c(=O)c1Cl
[3]
  IC50: > 47.1 µM (inactive)
[4]
  EC50: > 53 µM (inactive)

## CCn1c(=O)n(CC)c2cc(S(=O)(=O)Nc3ccccc3C)c(C)cc21
[5]
  EC50: > 260 µM (inactive)

## FC(F)(F)c1ccccc1-c1cncnc1Nc1ccccc1
Cytochrome P450 1A2
  AC50: 25.1 µM (inconclusive)
Cytochrome P450 2D6
  AC50: 39.8 µM (inconclusive)

## COc1cc(N=C(S)NC(C)(C)C)c(OC)cc1Cl
[5]
  EC50: > 260 µM (inactive)

## COc1ccc(CN2CCC(CO)(CCOc3ccccc3)CC2)cc1C
[3]
  IC50: > 47.1 µM (inactive)
[4]
  EC50: > 53 µM (inactive)

## CCOC(=O)CSc1cc(-c2ccccc2)nc2ncnn12
[5]
  EC50: 22.8 µM (active)

## Cc1ccc(Nc2ncnc3sc(C)c(C)c23)cc1
[1]
  EC50: 19.5 µM (active)
[2]
  EC50: 18.1 µM (active)
H4
  EC50: 26.3 µM (active)

## CCOC(=O)O[C@]1(C(=O)COC(=O)CC)CC[C@@H]2[C@@H]3CCC4=CC(=O)C=C[C@@]4(C)[C@H]3[C@H](O)C[C@]21C
Cytochrome P450 3A4
  AC50: 12.6 µM (inconclusive)
Cytochrome P450 2C9
  AC50: 12.6 µM (inconclusive)
Cytochrome P450 2D6
  AC50: 12.6 µM (inconclusive)

## COc1cccc(NS(=O)(=O)c2ccc3ncc(C(=O)NCCN4CCOCC4)c(O)c3c2)c1
Cytochrome P450 1A2
  AC50: 12.6 µM (inconclusive)
Cytochrome P450 2D6
  AC50: 28.2 µM (inconclusive)

## O=C(C[C@H]1C[C@@H]2c3cc(NS(=O)(=O)c4ccccc4)ccc3O[C@@H]2[C@H](CO)O1)N1CCOCC1
[3]
  IC50: > 47.1 µM (inactive)
[4]
  EC50: > 53 µM (inactive)

## O=C(N/N=C1\CC(c2ccccc2)Oc2ccccc21)c1ccc(O)cc1 (stereo not drawn)
[5]
  EC50: > 260 µM (inactive)

## CCC(=O)NC(C)c1cc(Cl)c2cccnc2c1O (stereo not drawn)
[6]
  AC50: 9.85 µM (active)
[7]
  AC50: 5.19 µM (active)
[8]
  AC50: 1.62 µM (active)

## CCC(=O)Nc1c(S(=O)(=O)c2ccccc2)c2nc3ccccc3nc2n1C(C)c1ccccc1 (stereo not drawn)
[5]
  EC50: > 260 µM (inactive)

## O=[N+]([O-])c1ccc(S(=O)(=O)Cc2ccccc2)c([N+](=O)[O-])c1
Cytochrome P450 1A2
  AC50: 5.01 µM (inconclusive)
Cytochrome P450 2D6
  AC50: 2.51 µM (inconclusive)

## Cc1ccc(NC(=O)c2sc(N)nc2-c2ccc([N+](=O)[O-])cc2)c(C)c1
[5]
  EC50: > 260 µM (inactive)

## CCOC(=O)C1=NN(c2ccccc2)C2=NC(C)=C(C(=O)OC)C(c3cccs3)N12 (stereo not drawn)
[3]
  IC50: > 47.1 µM (inactive)
[4]
  EC50: > 53 µM (inactive)

## CC(=O)c1cc(C#N)c(Oc2ccc(Cl)cc2Cl)nc1C
[3]
  IC50: > 47.1 µM (inactive)
[4]
  EC50: > 53 µM (inactive)

## CN(C)c1ccc(-c2cncnc2Nc2ccccc2)cc1
Cytochrome P450 2D6
  AC50: 20 µM (inconclusive)

## Cc1ccccc1Cn1c(-c2cncs2)nc2ccccc21
[5]
  EC50: > 260 µM (inactive)

## Cc1ccccc1Nc1nc(N)nc(COC(=O)c2cccc(S(=O)(=O)N(C)c3ccccc3)c2)n1
[3]
  IC50: > 47.1 µM (inactive)
[4]
  EC50: > 53 µM (inactive)
